Primed or numbered codes have the meaning given here. FAM = 5(6)-carboxyfluorescein; FAM″ = C-terminal FAM dye
System: NSC-34 cells
Assay: Evaluation on cell membrane permeability by flow cytometry
Type: cell-based, mouse
Details: 10 μM construct (additive), 0.5% DMSO, 20 hours incubation, flow cytometer FL2
Procedure: As the eukaryotic cells, NSC-34 cells (mouse motor neuron-like hybrid cell line) were used and the cell membrane permeability of the constructs 1 to 4 was analyzed. In Examples 1 to 4, the prepared samples 1 to 4 were used, respectively, and in Example 5, a FAM solution was used.
The NSC-34 cells were cultured in 10% fetal bovine serum (FBS)-containing Dulbecco's modified Eagle's medium (DMEM (Cat No. 044-29765, manufactured by FUJIFILM Wako Pure Chemical Corporation)), which is a normal culture medium.
The NSC-34 cells that adhered to a culture plate were cleaned with PBS and then, a 0.25%-trypsin/EDTA solution was added thereto, and incubation was performed for three minutes at 37° C. After the incubation, the aforementioned 10% FBS-containing DMEM was added to deactivate trypsin and then, five-minute centrifugal separation was performed at 150×g to precipitate the cells. After the supernatant generated by the centrifugal separation was removed, the 10% FBS-containing DMEM was added to the precipitate (cell pellet) to prepare a cell suspension of about 2×10^5 cells/mL. The cell suspension was added by 1 mL to a well of a commercially available six-hole (well) plate (manufactured by AGC TECHNO GLASS Co., Ltd.) so as to seed the cell (about 2×10^5 cells/well). In addition, the 2 mM sample solution 1 was diluted with the 10% FBS-containing DMEM to prepare the sample solution 1 in which the concentration of the sample 1 was 20 μM. Then, 1 mL of the 20 μM sample solution 1 was added to the well (that is, so that the concentration of the sample 1 became 10 μM and the DMSO concentration became 0.5% in the culture solution in the well). After that, the cell was incubated for 20 hours at 37° C. under a 5% CO2 condition.
After the 20-hour incubation, the culture supernatant was removed from the well and the cells in the well were cleaned twice with 1 mL of PBS. Next, 200 μL of the 0.25% trypsin/EDTA solution was added to the well and the incubation was performed for three minutes at 37° C. After the incubation, 400 μL of the 10% FBS-containing DMEM was added to the well to deactivate the trypsin. Subsequently, the cell suspension in the well was transferred to a tube and the cells were collected. After that, 600 μL of PBS was added further to the well to clean the well. Then, PBS in the well was transferred to the tube, so that the cells remaining in the well were collected in the tube. This tube was subjected to five-minute centrifugal separation at 4° C. under a condition of 210×g. After the centrifugal separation, the supernatant was removed and the precipitate (cell pellet) was suspended (cleaned) with 1 mL of PBS, which was followed by the centrifugal separation under the same condition as that described above. After this operation was repeated twice, the supernatant was removed and thus, the cells (cell pellet) cultured in a culture medium containing the sample 1 were obtained.
Regarding the obtained cells (cell pellet), the cell membrane permeability of the sample 1 was analyzed using a flow cytometer. […]
Using the aforementioned flow cytometer, gating based on forward scatter (FSC) and side scatter (SSC) was performed to set a gate about a cell group to be analyzed, and the fluorescence intensity was measured about the cell group in this gate. […] The fluorescence intensity was measured using a fluorescence detector FL2 of the flow cytometer (optimum detection wavelength around 543 nm) capable of detecting the fluorescence wavelength of FAM. […]

In order of rising “MFI (median fluorescence intensity)” value:
1. 5(6)-carboxyfluorescein [Example 5, reference compound]  8.15
2. Ac-KKRTLRKSNSRKKR-FAM (Ac-KKRTLRKSNSRKKR-{FAM″}) [Example 1]  11.2
3. Ac-KKRTLRKSSNRKKR-FAM (Ac-KKRTLRKSSNRKKR-{FAM″}) [Example 2]  12.9
4. Ac-KKRTLRKSNNRKKR-FAM (Ac-KKRTLRKSNNRKKR-{FAM}) [Example 3]  13.6
5. Ac-KKRTLRKNSNRKKR-FAM (Ac-KKRTLRKNSNRKKR-{FAM}) [Example 4]  16.7
